Results published in patent US20230138400A1, “METHODS AND PHARMACEUTICAL COMPOSITIONS FOR REPROGRAMING IMMUNE ENVIRONMENT IN A SUBJECT IN NEED THEREOF” (INSERM (INSTITUT NATIONAL DE LA SANTE ET DE LA RECHERCHE …, priority 2016, published 2023).

Assays:
[1] = tested on: naive CD4 T cells isolated from the spleen of C57BL/6 mice; experiment: Polarization of naive CD4 T cells (Th1, Th2, Treg, Th17 conditions) in presence of DDA, flow cytometry; assay type: cell-based, mouse
Protocol: (§1) FIGS. 1A-E. Sorted naive CD4 T cells were isolated from the spleen of C57BL/6 mice and activated in the indicated Th1, Th2, Treg, or Th17 polarizing conditions as described in the “Materials and methods” section”. These cells were cultured in the presence of increasing concentrations of DDA. After 96 hours, the percentage of (A) Th1: CD4+Tbet+IFNg+, (B) Th2: CD4+GATA3+[…], (C) Treg: CD4+Foxp3+IL10+ and (D) Th17: CD4+RORgt+[…], cells was measured by flow cytometry. (E) Sorted naive CD8 T cells were isolated from the spleen of the C57BL/6 mice and activated with anti-CD3, anti-CD28 and recombinant IL2. After 96 hours, the percentage of cytotoxic T CD8+GranzymB+IFNg+ cells was measured by flow cytometry.
(§2) FIGS. 2A-E. Sorted naive CD4 T cells isolated from the spleen of C57BL/6 mice were activated in Th1, Th2, Treg, or Th17 polarizing conditions as indicated in the “Materials and methods” section”. After 96 h, increasing concentrations of DDA was added on polarized CD4 T cells for 24 h. Then the percentage of (A) CD4+Tbet+IFNg+, (B) CD4+GATA3+[…], (C) CD4+Foxp3+IL10+ and (D) CD4+RORgt+[…] cells was measured by flow cytometry. (E) Sorted naïve CD8 T cells were isolated from the spleen of the C57BL/6 mice and activated with anti-CD3, anti-CD28 and recombinant IL2. After 96 h, increasing concentrations of DDA was added on activated CD8 T cells for 24 h. Then the percentage of cytotoxic T CD8+GranzymB+IFNg+ cells was measured by flow cytometry.
Cells isolation. Single-cells leukocyte suspensions were obtained from spleens of C57BL/6 mice. Naive CD4 or CD8 T cells are isolated by depletion of memory CD4 or CD8 T cells and non-CD4 or non-CD8 T cells according the manufacturer's protocol from Miltenyi kit (Miltenyi biotec). Purities of CD4+CD44l^ow CD62L^high or CD8+CD44l^ow CD62L^high T cells after isolation were >98%
Immune cell culture. Isolated CD4+ or CD8+ T cells were cultures in 96-well flat bottom plates (0.25×10^6 cells per wells) in 0.25 ml of complete RPMI 1640 media (10% FBS, 1% penicillin/Streptomycin, 1% sodium pyruvate, 1% HEPES and 50 μM b-mercaptoethanol) in the presence of 10 μg/ml plate-bound anti-mouse CD3 (2C11) and 2 μg/ml soluble α-CD28 (LEAF) in addition to 50 ng/ml of recombinant IL-2 (e-bioscience). DDA (synthesized by Affichem) diluted in the solvent vehicle was added at increasing concentration (0-1-10-100 and 1000 nM). Cells were cultured in polarizing Th1 (20 ng/ml of recombinant […] and 10 μg/ml of anti-IL4), Th2 (50 ng/ml of recombinant IL-4, 10 μg/ml of anti-IFNg), Th17 (10 ng/ml of recombinant TGF-b, 100 ng/ml of recombinant IL-6, 10 μg/ml of anti-IFN-g and 10 μg/ml of anti-IL4) or Treg (10 ng/ml of recombinant TGF-b, 10 μg/ml of anti-IFNg and 10 μg/ml of anti-IL4) conditions. All recombinant cytokines were purchased from Peprotech and antibodies were purchased from eBioscience. After 5 days of culture, cells were collected and analyzed by flow cytometry. To investigate the impact of DDA on polarization of CD4 or CD8 naive T cells, DDA or the solvent vehicle was added at the beginning of culture at Day 0 or at Day 4 and cells was analyzed at day 5 by flow cytometry.

[2] = tested on: naive CD8 T cells isolated from the spleen of the C57BL/6 mice; experiment: Activation of naive CD8 T cells (anti-CD3, anti-CD28, IL2) in presence of DDA, flow cytometry; assay type: cell-based, mouse
Protocol: as §1, §2
Cells isolation. Single-cells leukocyte suspensions were obtained from spleens of C57BL/6 mice. Naive CD4 or CD8 T cells are isolated by depletion of memory CD4 or CD8 T cells and non-CD4 or non-CD8 T cells according the manufacturer's protocol from Miltenyi kit (Miltenyi biotec). […]
Immune cell culture. […] After 5 days of culture, cells were collected and analyzed by flow cytometry. To investigate the impact of DDA on polarization of CD4 or CD8 naive T cells, DDA or the solvent vehicle was added at the beginning of culture at Day 0 or at Day 4 and cells was analyzed at day 5 by flow cytometry.

CC(C)CCCC(C)[C@H]1CCC2C3C[C@@H](NCCc4cnc[nH]4)[C@@]4(O)C[C@@H](O)CC[C@]4(C)C3CC[C@@]21C (stereo partly drawn) [DDA, 5a-hydroxy-6b-[2-(1H-imidazol-4-yl)ethylamino]cholestan-3b-ol]
concentration from which differentiation of Th0 into Th1 is increased ([1]; DDA added at day 0, Th1 polarizing conditions, 96 h, CD4+Tbet+IFNg+): ≥ 1 nM | Th2 differentiation ([1]; DDA added at day 0, Th2 polarizing conditions): no effect | concentration from which differentiation of Th0 into Th17 is increased ([1]; DDA added at day 0, Th17 polarizing conditions, 96 h): ≥ 100 nM | Treg differentiation ([1]; DDA added at day 0, Treg polarizing conditions): no effect | concentration from which differentiation of Th0 into Th1 is increased ([1]; DDA added at day 4 for 24 h): ≥ 1 nM | differentiation into Th2 ([1]; DDA added at day 4 for 24 h): no effect | differentiation into Th17 ([1]; DDA added at day 4 for 24 h): no effect | differentiation of Th0 into Treg ([1]; DDA added at day 4 for 24 h (FIG. 2)): inhibits | activated phenotype of CD4 T cells (CD44 at their surface) ([1]; day 4, data not shown): upregulation of CD44 | concentration from which differentiation of naïve CD8 T cells into functional cytotoxic CD8 T cells is increased ([2]; DDA added at day 0, 96 h, CD8+GranzymB+IFNg+): ≥ 10 nM | concentration from which differentiation of naïve CD8 T cells into functional cytotoxic CD8 T cells is increased ([2]; DDA added at day 4 for 24 h): ≥ 1 nM | CD8 T cells phenotype ([2]; data not shown): no significant effect
